# In patent publication US20020107414A1, “Method of prostaglandin synthesis” (priority 1993, published 2002):
# Like-named read-outs stand apart in the source and are kept apart here.
# How the values were obtained:
# [1] = test system: intraocular pressure in human eyes; conditions: cited from earlier work
# [2] = test system: intraocular pressure (IOP); conditions: rabbits, cited from earlier work
# [3] = test system: intraocular pressure (IOP); test: IOP reduction in cynomolgus monkeys with ocular hypertension produced by laser trabeculoplasty; format: in vivo; conditions: for Percent IOP Reduction at Hours after Dose/Dose# 2/5: 2 hours after fifth dose; for Percent IOP Reduction at Hours after Dose/Dose# 4/5: 4 hours after fifth dose; for Percent IOP Reduction at Hours after Dose/Dose# 6/5: 6 hours after fifth dose; for Percent IOP Reduction at Hours after Dose/Dose# 16/4: 16 hours after fourth dose; for reduction of intraocular pressure (in words): at doses marginal or ineffective for other prostaglandins in published clinical studies
# Method: The ability of certain compounds of the present invention to reduce intraocular pressure (IOP) was evaluated in cynomolgus monkeys with ocular hypertension produced by previous laser trabeculoplasty in the right eye. Animals had been trained to sit in restraint chairs and conditioned to accept experimental procedures without chemical restraint. IOP was determined with a pneumatonometer after light corneal anesthesia with dilute proparacaine. The test protocol included a treatment regimen consisting of 5 divided doses administered over a period of 2 and ½ days. Doses 2-5 were given 8, 24, 32 and 48 hours after the initial dose. Baseline IOP values were determined prior to treatment with the test formulation, and then IOP was determined 16 hours after the fourth dose, and 2, 4 and 6 hours after the fifth dose. Prostaglandin doses are micrograms of compound contained in each treatment. The two compounds tested are those previously identified as Compounds (II) and (IV).
compound,measurement,setting,value
O=C(O)CCCCCCC1C(=O)NC(=O)N1CCC(O)C1CCCCC1 (stereo not shown) [BW245C],reduction of intraocular pressure in human eyes,[1]; 2.5 μg,10%
same,maximum IOP reduction,[2]; 25 μg,~22%
"CC(C)(C)OC(=O)COC/C=C\C[C@@H]1[C@@H](CC[C@@H](O)C2CCCCC2)[C@H](O)C[C@H]1Cl [Compound (II), (5Z)-(9R, 11R, 15R)-9-Chloro-15-cyclohexyl-11,15-dihydroxy-3-oxa-16,17,18,19,20-pentanor-5-prostenoic Acid t-Butyl Ester]",reduction of intraocular pressure,[3]; 5 μg of compound,~50%
same,Percent IOP Reduction at Hours after Dose/Dose# 2/5,[3]; PG dose 1 μg per treatment,30.8 ± 4.7%
same,Percent IOP Reduction at Hours after Dose/Dose# 4/5,[3]; PG dose 1 μg per treatment,26.4 ± 4.7%
same,Percent IOP Reduction at Hours after Dose/Dose# 6/5,[3]; PG dose 1 μg per treatment,24.9 ± 4.0%
same,Percent IOP Reduction at Hours after Dose/Dose# 16/4,[3]; PG dose 1 μg per treatment,22.3 ± 2.7%
same,Percent IOP Reduction at Hours after Dose/Dose# 2/5,[3]; PG dose 5 μg per treatment,47.5 ± 5.1%
same,Percent IOP Reduction at Hours after Dose/Dose# 4/5,[3]; PG dose 5 μg per treatment,43.7 ± 5.6%
same,Percent IOP Reduction at Hours after Dose/Dose# 6/5,[3]; PG dose 5 μg per treatment,36.5 ± 5.8%
same,Percent IOP Reduction at Hours after Dose/Dose# 16/4,"[3]; PG dose 5 μg per treatment, lasered right eye, topical",38.3 ± 3.0%
same,reduction of intraocular pressure (in words),[3],significant reduction
"CC(C)OC(=O)CCC/C=C\C[C@@H]1[C@@H](CC[C@@H](O)C2CCCCC2)[C@H](O)C[C@H]1Cl [Compound (IV), (5Z)-(9R, 11R, 15R)-9-Chloro-15-cyclohexyl-11,15-dihydroxy-16,17,18,19,20-pentanor-5-prostenoic Acid Isopropyl Ester]",Percent IOP Reduction at Hours after Dose/Dose# 2/5,[3]; PG dose 20 μg per treatment,30.1 ± 4.8%
same,Percent IOP Reduction at Hours after Dose/Dose# 4/5,[3]; PG dose 20 μg per treatment,22.4 ± 5.2%
same,Percent IOP Reduction at Hours after Dose/Dose# 6/5,[3]; PG dose 20 μg per treatment,19.3 ± 4.3%
same,Percent IOP Reduction at Hours after Dose/Dose# 16/4,[3]; PG dose 20 μg per treatment,13.9 ± 2.7%
same,reduction of intraocular pressure (in words),[3],significant reduction
CCCCC[C@H](O)/C=C/[C@H]1C(=O)C[C@H](O)[C@@H]1C/C=C\CCCC(=O)O [PGD2],reduction of intraocular pressure in human eyes,[1]; 50 μg,12%
same,maximum IOP reduction,[2]; 250 μg,approximately 28%
